Results on four compounds are retold here after patent US5686613A, “Tridentate metal ligands of certain pyridine phosphonic acids” (priority 1996, dated 1997).

Where two headings read alike, the source gives them in different places.

How the values of series [1] were obtained: (§1) The redox reaction was carried out in a continuous glass reaction apparatus as described in D. Chen, R. J. Motekaitis, A. E. Martell and D. McManus, Can. J. Chem., 71, 1524 (1993) which is incorporated herein by reference.
Experimental runs were also conducted with 2P6C, with and without K2 SO3 added as a stabilizer.

How the values of series [2] were obtained: The degradation resistances of pyridine-2-phosphonic-6-carboxylic acid (2P6C) and pyridine-2,6-diphosphonic acid (2,6-PDPA), prepared by the synthesis schemes presented in FIGS. 2 and 3, respectively, were evaluated as described below. Both ligands were evaluated in the iron chelate form.
1. Degradation of Fe(III)-2P6C at pH 8.5 and 25° C. (Fe(III)0.018M, 2P6C 0.036 M; H2 S flow rate=2.0 mL/min.)
as §1
Preparation of iron-free sample. To 4.0 mL of solution taken from the continuous reactor, 100 mg of NaOH in 20 mL water were added dropwise with stirring. The mixture was heated to 70°-80° C. for 30 min. The Fe(OH)3 that precipitated was filtered off carefully and was washed several times with water. The filtrate was combined with the washings and was transferred to a 50 mL volumetric flask. The pH of the solution was adjusted with acid to 4.2, and then diluted with distilled water to 50 mL.
Operating conditions. Analytical column: I-SIL 5 C8, reverse phase 4.5×150 mm; Column temperature: ambient; mobile phase flow rate: 1.5 mL/min; Detector: UV at 275 nm, 0.20 AUFS; Sample volume: 20 microliter; Recorder: 10 mV full-scale; Chart speed: 0.5 cm/min. The mobile phase contained: 0.0010 M Cu(II), 60:40 H2 O: MeOH, 2% HOAc, 0.2% CH3 (CH2)15 (CH3)3 NBr, adjusted to pH 4.2 With NaOH solution.
Using the same test conditions described above, the degradation of nitrilotriacetic acid (NTA) was evaluated.
The source holds these as a separate data set.

Series [3] is described as follows: Degradation of Fe(III) chelate ligand in H2S redox reaction in the presence of thiosulfate stabilizer. It counts as physicochemical. The conditions noted are these: for NTA (M) (concentration remaining) / NTA, % Remaining: Fe(III)-NTA, pH 8.5, 32 g Na2S2O3 per liter. The source says:
Table 3 and FIG. 5 contain the data obtained from a run with the continuous glass reaction apparatus described above.

A short description of series [4]: Degradation of Fe(III)-2,6 PDPA in H2S redox reaction without stabilizer (uv-vis spectrophotometric analysis), pH 8.5 and 25° C. It counts as physicochemical. The conditions noted are these: pH 8.5, 25° C., no stabilizer. The method, then:
Both ligands were evaluated in the iron chelate form.
The concentration of 2,6 PDPA was analyzed by the following uv-vis spectrophotometric measurements: to 1.0 mL of solution taken from the continuous reactor, 150 mg of NaOH in 15 mL water was added with stirring. The mixture was heated with a steam-bath for 2 hr, then allowed to stand at room temperature for 2 hr. […] The filtrate combined with the washings, was transferred to a 50 mL volumetric flask, and diluted to […] with 6M HCl. This solution was ready for uv-vis spectrophotometric analysis.

For series [5] the following is noted: iron chelate, cited from earlier work.
The mark [6] stands for this setting: h2s redox reactor, 100 h, 36000 µM, pH 8.5.

For the compound `O=C(O)c1cccc(P(=O)(O)O)n1` [2P6C, pyridine-2-phosphonic-6-carboxylic acid], the “2P6C % Remaining” value in series [1] (0 min) is reported as 100.0%; in series [1] (h2s reactor, 5% k2so3, 2 h) it was 100.0%; in series [1] (h2s reactor, 5% k2so3, 20 h) it was 97.7%; in series [1] (h2s reactor, 5% k2so3, 44 h), 97.6%; in series [1] (h2s reactor, 5% k2so3, 68 h) it was 97.4%; in series [1] (h2s reactor, 5% k2so3, 92 h), 98.9%. Further, the “2P6C % Remaining” value in series [2] (0 min, 36000 uM, pH 8.5) turned out to be 100.0%; in series [2] (h2s redox reactor, 25 h, 36000 µM, pH 8.5), 94.4%; in series [2] (h2s redox reactor, 50 h, 36000 µM, pH 8.5), 86.1%; in series [2] (h2s redox reactor, 84 h, 36000 µM, pH 8.5) it was 83.3%; in series [2] (setting [6]) it was 80.6%. In addition, the “degradation compared with NTA” value in series [2] was “degrades much more slowly than NTA”. The “2P6C lost after redox reaction” value in series [2] (setting [6]) was “about 20%”. Further, in series [2] (pH 8.5), the “degradation during the redox reaction” value is given as “degrades very slowly”. For the same compound, in series [2] (pH 8.5), the “effect of hydroxylation/degradation on the process” value is “no deleterious effect on the process is observed”. Moreover, in series [3], the “degradation in the presence of thiosulfate” value is recorded as “no detectable degradation was observed”.

Regarding `O=C(O)CN(CC(=O)O)CC(=O)O` [NTA, nitrilotriacetic acid], the “NTA, % Remaining” value in series [2] (0 min, pH 8.5) worked out at 100.0%; in series [2] (h2s redox reactor, 12 h, pH 8.5), 75.7%; in series [2] (h2s redox reactor, 20 h, pH 8.5) it was 65.7%; in series [2] (h2s redox reactor, 30 h, pH 8.5), 52.4%; in series [2] (h2s redox reactor, 40 h, pH 8.5) it was 49.4%; in series [2] (h2s redox reactor, 64 h, pH 8.5), 32.9%. Further, the “NTA, % Remaining” value is given as 26.2% in series [2] (h2s redox reactor, 77 h, pH 8.5); 100.0% in series [3] (0 hr); 95.0% in series [3] (14.0 hr); 92.0% in series [3] (26.0 hr); 88.4% in series [3] (39.0 hr); 87.6% in series [3] (50.0 hr). For the same compound, the “NTA, % Remaining” value worked out at 84.5% in series [3] (66.0 hr), 82.0% in series [3] (80.0 hr) and 80.9% in series [3] (99.0 hr). For the same compound, in series [3], the “degradation with thiosulfate” value is reported as “much slower when thiosulfate is added”. Also, in series [3], the “rate of degradation with thiosulfate” value is “still measurable”. The “NTA (M) (concentration remaining)” value in series [3] (0 hr) was determined as 0.0362 M; in series [3] (14.0 hr) it was 0.0344 M; in series [3] (26.0 hr) it was 0.0333 M; in series [3] (39.0 hr) it was 0.0320 M; in series [3] (50.0 hr), 0.0317 M; in series [3] (66.0 hr), 0.0306 M. In addition, the figures for the “NTA (M) (concentration remaining)” value in series [3] (80.0 hr) and in series [3] (99.0 hr) were 0.0297 M and 0.0293 M, respectively.

Take `O=P(O)(O)c1cccc(P(=O)(O)O)n1` [2,6-PDPA, pyridine-2,6-diphosphonic acid]: the “degradation in the presence of thiosulfate” value in series [3] (after 100 hr of operation, thiosulfate) is “no detectable degradation was observed”. The “degradation” value in series [4] (100 hr, Fe(III) 0.0090 M, 2,6 PDPA 0.018 M) is on record as “no significant degradation was observed”. The “degradation, estimated” value in series [4] (over 100 hr, 18000 µM) is “less than 5%”.

With `O=C(O)c1cccc(C(=O)O)n1` [2,6-pyridinedicarboxylic acid], in series [5] (normal pH of the process), the “precipitation of ferric hydroxide from ferric chelate” value was “unacceptable precipitation of ferric hydroxide”. Further, in series [5], the “resistance to catalyst degradation” value was “good resistance to catalyst degradation”.
